Measurements taken from patent US4617290A, “Synergistine derivatives, their preparation and pharmaceutical compositions containing them” (Rhone-Poulenc Sante, priority 1983, dated 1986).

Assay type: physicochemical
Protocol: The new compounds of the invention have the considerable advantage of being soluble or capable of being solubilized in water, either in the form of parent substances or in the form of salts, at therapeutically useful levels, while at the same time retaining the general spectrum of antibacterial activity of synergistines. They are especially active in vitro against Staphylococcus aureus Smith at concentrations of between 8 and 125 μg/ml. A 10% aqueous solution of 5γ-deoxy-5γ-(3-dimethylaminopropyl)aminopristinamycin IA (product A) in the form of the hydrochloride is obtained with: […]

## 5γ-[N-(carboxymethyl)-methylamino]-5γ-deoxypristinamycin IA [product K]
  concentration of aqueous solution obtained: 2%
